Values of other authors as cited in patent publication US20100172986A1, “CONTROLLED RELEASE COMPOSITION AND PREPARATION THEREOF” (LOTUS PHARMACEUTICAL CO., LTD., priority 2006, published 2010).

Conditions: in adults

CCCC(CCC)C(=O)O [valproic acid, 2-Propylpentanoic acid]
elimination half-life: six and seventeen
